Values joined by “and” are separate entries in the source; they are usually repeats but may differ in a detail not shown here. Equal values may be shown once. Toxic doses and inconclusive results are not listed.
Test system: L1210 leukemia ip in BDF1 mice, survival T/C
Assay: NCI In Vivo Anticancer Drug Screen. Data for tumor model L1210 Leukemia (intraperitoneal) in B6D2F1 (BDF1) mice
Settings: endpoint: mean survival time, higher = longer survival
In short: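 Transplanted-tumor mice were given test agent; controls received vehicle only. Survival readings from the two groups were divided (treated over control).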

[1] = dose: 100.0 mg/kg/injection, schedule: Q04DX003 (ip), vehicle: Klucel (hydroxypropylcellulose) (HPC)
[2] = dose: 100.0 mg/kg/injection, schedule: Q04DX002 (ip), vehicle: Klucel (hydroxypropylcellulose) (HPC)
[3] = dose: 200.0 mg/kg/injection, schedule: Q04DX002 (ip), vehicle: Klucel (hydroxypropylcellulose) (HPC)
[4] = dose: 100.0 mg/kg/injection, schedule: Q04DX003 (ip), vehicle: saline with Tween-80
[5] = dose: 200.0 mg/kg/injection, schedule: Q04DX003 (ip), vehicle: saline with Tween-80
[6] = dose: 25.0 mg/kg/injection, schedule: Q04DX003 (ip), vehicle: Klucel (hydroxypropylcellulose) (HPC)
[7] = dose: 50.0 mg/kg/injection, schedule: Q04DX003 (ip), vehicle: Klucel (hydroxypropylcellulose) (HPC)
[8] = dose: 200.0 mg/kg/injection, schedule: Q04DX003 (ip), vehicle: Klucel (hydroxypropylcellulose) (HPC)
[9] = dose: 400.0 mg/kg/injection, schedule: Q04DX003 (ip), vehicle: Klucel (hydroxypropylcellulose) (HPC)
[10] = dose: 100.0 mg/kg/injection, schedule: Q01DX009 (ip), vehicle: saline
[11] = dose: 100.0 mg/kg/injection, schedule: Q01DX009 (ip), vehicle: saline with Tween-80
[12] = dose: 200.0 mg/kg/injection, schedule: Q01DX009 (ip), vehicle: saline with Tween-80
[13] = dose: 400.0 mg/kg/injection, schedule: Q01DX009 (ip), vehicle: saline with Tween-80
[14] = dose: 400.0 mg/kg/injection, schedule: Q04DX003 (ip), vehicle: saline with Tween-80
[15] = dose: 100.0 mg/kg/injection, schedule: Q01DX009 (ip), vehicle: Klucel (hydroxypropylcellulose) (HPC)
[16] = dose: 200.0 mg/kg/injection, schedule: Q01DX009 (ip), vehicle: Klucel (hydroxypropylcellulose) (HPC)
[17] = dose: 100.0 mg/kg/injection, schedule: Q01DX001 (ip), vehicle: saline
[18] = dose: 200.0 mg/kg/injection, schedule: Q01DX001 (ip), vehicle: saline
[19] = dose: 400.0 mg/kg/injection, schedule: Q01DX001 (ip), vehicle: saline

Cc1cc(N(CCOS(C)(=O)=O)CCOS(C)(=O)=O)ccc1C=Nc1ccc(-c2csc(Cc3ccccc3)n2)cc1
T/C (dose: 6.25 mg/kg/injection, schedule: Q01DX009 (ip), vehicle: Klucel (hydroxypropylcellulose) (HPC)): 105 % of control | T/C (dose: 12.5 mg/kg/injection, schedule: Q01DX009 (ip), vehicle: Klucel (hydroxypropylcellulose) (HPC)): 110 % of control | T/C (dose: 25.0 mg/kg/injection, schedule: Q01DX009 (ip), vehicle: Klucel (hydroxypropylcellulose) (HPC)): 122 % of control

O=C(O/N=C1\C2CCC(C2)C1Cl)c1ccc([N+](=O)[O-])cc1 (stereo not drawn)
T/C (dose: 25.0 mg/kg/injection, schedule: Q01DX009 (ip), vehicle: saline with Tween-80): 94 % of control | T/C (dose: 50.0 mg/kg/injection, schedule: Q01DX009 (ip), vehicle: saline with Tween-80): 88 % of control | T/C [1]: 102 % of control

Nc1nc(N)nc(COc2ccccc2Cl)n1
T/C [2]: 119 % of control | T/C [3]: 90 % of control

CCCCCCCCCCCCCC(=O)OCC(C)C
T/C (dose: 222.0 mg/kg/injection, schedule: Q01DX Z (ip), vehicle: saline): 94 % of control | T/C (dose: 333.0 mg/kg/injection, schedule: Q01DX Z (ip), vehicle: saline): 90 % of control | T/C (dose: 500.0 mg/kg/injection, schedule: Q01DX Z (ip), vehicle: saline): 94 % of control

Cc1ccc(-n2c(O)c(N=Nc3ccccc3C)c(=O)n(-c3ccc(I)cc3)c2=S)cc1
T/C (dose: 37.5 mg/kg/injection, schedule: Q01DX001 (ip), vehicle: Klucel (hydroxypropylcellulose) (HPC)): 101 % of control | T/C (dose: 75.0 mg/kg/injection, schedule: Q01DX001 (ip), vehicle: Klucel (hydroxypropylcellulose) (HPC)): 108 % of control | T/C (dose: 150.0 mg/kg/injection, schedule: Q01DX001 (ip), vehicle: Klucel (hydroxypropylcellulose) (HPC)): 92 % of control

C[n+]1ccn(Cc2ccc([N+](=O)[O-])cc2)c1
T/C [4]: 171 % of control | T/C [5]: 90 % of control

OCc1ccc(-c2ccccc2)cc1
T/C [6]: 108 % of control | T/C (dose: 50.0 mg/kg/injection, schedule: Q01DX005 (ip), vehicle: saline): 94 % of control | T/C [7]: 103 % of control | T/C (dose: 100.0 mg/kg/injection, schedule: Q01DX005 (ip), vehicle: saline): 112 % of control | T/C [1]: 103 % of control | T/C (dose: 200.0 mg/kg/injection, schedule: Q01DX005 (ip), vehicle: saline): 100 % of control | T/C (dose: 400.0 mg/kg/injection, schedule: Q01DX005 (ip), vehicle: saline): 102 % of control

Cc1nc2c(nc1C)C(=O)C1C3c4ccccc4C(c4ccccc43)C1C2=O (stereo not drawn)
T/C [8]: 93 % of control | T/C [9]: 93 % of control

CCN1CCc2ccccc2C1c1ccccc1 (stereo not drawn)
T/C (dose: 25.0 mg/kg/injection, schedule: Q01DX009 (ip), vehicle: saline): 104 % of control | T/C (dose: 50.0 mg/kg/injection, schedule: Q01DX009 (ip), vehicle: saline): 103 % of control | T/C [10]: 106 % of control and 115 % of control

O=C(N=C=S)c1ccccc1
T/C (dose: 100.0 mg/kg/injection, schedule: Q01DX009 (ip), vehicle: other): 95 % of control | T/C (dose: 200.0 mg/kg/injection, schedule: Q01DX009 (ip), vehicle: other): 87 % of control | T/C (dose: 400.0 mg/kg/injection, schedule: Q01DX009 (ip), vehicle: other): 89 % of control

CCOC(=O)CC(C)(N)NC(N)=O (stereo not drawn)
T/C [11]: 98 % of control | T/C (dose: 100.0 mg/kg/injection, schedule: Q04DX003 (ip), vehicle: saline): 104 % of control | T/C [12]: 93 % of control | T/C (dose: 200.0 mg/kg/injection, schedule: Q04DX003 (ip), vehicle: saline): 106 % of control | T/C [13]: 90 % of control | T/C (dose: 400.0 mg/kg/injection, schedule: Q04DX003 (ip), vehicle: saline): 106 % of control

CCOc1ccc(NC(=O)Nc2ccccc2)cc1
T/C [11]: 94 % of control | T/C [4]: 96 % of control | T/C [12]: 93 % of control | T/C [5]: 94 % of control | T/C [13]: 93 % of control | T/C [14]: 94 % of control

Cc1c2c(n(C)c1C(=O)N1CCOCC1)CCCC2=O
T/C (dose: 100.0 mg/kg/injection, schedule: Q04DX003 (ip), vehicle: carboxymethylcellulose (CMC)): 101 % of control | T/C (dose: 200.0 mg/kg/injection, schedule: Q04DX003 (ip), vehicle: carboxymethylcellulose (CMC)): 98 % of control | T/C (dose: 400.0 mg/kg/injection, schedule: Q04DX003 (ip), vehicle: carboxymethylcellulose (CMC)): 98 % of control

CC(=O)OCC(OC(C)=O)C(OC1OC(COC(C)=O)C(OC(C)=O)C(OC(C)=O)C1OC(C)=O)C(OC(C)=O)C(C=O)OC(C)=O (stereo not drawn)
T/C (dose: 50.0 mg/kg/injection, schedule: Q01DX009 (ip), vehicle: Klucel (hydroxypropylcellulose) (HPC)): 96 % of control | T/C [15]: 89 % of control | T/C [11]: 102 % of control | T/C [4]: 102 % of control | T/C [16]: 89 % of control | T/C [12]: 102 % of control | T/C [5]: 105 % of control | T/C [13]: 102 % of control | T/C [14]: 94 % of control

Nc1ncc(CCCOc2ccccc2)c(=O)[nH]1
T/C [4]: 96 % of control | T/C [5]: 98 % of control | T/C [14]: 93 % of control

Oc1ccc(-c2nc3ccccc3nc2-c2ccc(O)cc2O)c(O)c1
T/C [17]: 96 % of control | T/C [18]: 93 % of control | T/C [19]: 96 % of control

CCn1cnc2cc(N=Cc3ccc(N(CCCl)CCCl)cc3Cl)ccc21
T/C [2]: 117 % of control | T/C [3]: 102 % of control | T/C (dose: 400.0 mg/kg/injection, schedule: Q04DX002 (ip), vehicle: Klucel (hydroxypropylcellulose) (HPC)): 98 % of control

Cc1ccc(N)cc1Br
T/C [17]: 102 % of control | T/C [10]: 100 % of control | T/C [18]: 94 % of control | T/C (dose: 200.0 mg/kg/injection, schedule: Q01DX009 (ip), vehicle: saline): 90 % of control | T/C [19]: 94 % of control | T/C (dose: 400.0 mg/kg/injection, schedule: Q01DX009 (ip), vehicle: saline): 103 % of control

CCCCCCCC/C=C\CCCCCCCCOCC(O)CO (stereo not drawn)
T/C (dose: 50.0 mg/kg/injection, schedule: Q01DX009 (ip), vehicle: acetone): 87 % of control | T/C [17]: 87 % of control | T/C (dose: 100.0 mg/kg/injection, schedule: Q01DX009 (ip), vehicle: acetone): 93 % of control | T/C (dose: 100.0 mg/kg/injection, schedule: Q04DX003 (ip), vehicle: acetone): 100 % of control | T/C [18]: 91 % of control | T/C (dose: 200.0 mg/kg/injection, schedule: Q04DX003 (ip), vehicle: acetone): 103 % of control | T/C [19]: 86 % of control

C=NCC#N
T/C [11]: 91 % of control | T/C [12]: 91 % of control | T/C [13]: 93 % of control

COc1cc(NS(=O)(=O)c2ccc(C)cc2)c2c(c1N)C(=O)c1ccccc1C2=O
T/C [11]: 105 % of control | T/C [4]: 98 % of control | T/C [12]: 94 % of control | T/C [5]: 98 % of control | T/C [13]: 100 % of control | T/C [14]: 93 % of control

OCCOC1CCCC=C1Cl (stereo not drawn)
T/C (dose: 100.0 mg/kg/injection, schedule: Q01DX001 (ip), vehicle: acetone): 95 % of control | T/C (dose: 200.0 mg/kg/injection, schedule: Q01DX001 (ip), vehicle: acetone): 98 % of control | T/C (dose: 400.0 mg/kg/injection, schedule: Q01DX001 (ip), vehicle: acetone): 91 % of control

O=C(COc1ccc(Cl)cc1)Nc1ccc(F)cc1
T/C [15]: 98 % of control | T/C [1]: 95 % of control | T/C [16]: 90 % of control | T/C [9]: 95 % of control

C[N+]1(C)C2C=CCC1CSC2 (stereo not drawn)
T/C (dose: 15.0 mg/kg/injection, schedule: Q01DX001 (ip), vehicle: saline): 110 % of control

O=P(Cc1ccccc1)(Cc1ccccc1)c1ccccc1
T/C [6]: 102 % of control | T/C [7]: 118 % of control | T/C [1]: 95 % of control and 104 % of control

COc1ccc(NC(=O)Nc2ccc(Cl)cc2OC)cc1
T/C (dose: 25.0 mg/kg/injection, schedule: Q04DX002 (ip), vehicle: saline with Tween-80): 93 % of control | T/C (dose: 50.0 mg/kg/injection, schedule: Q04DX002 (ip), vehicle: saline with Tween-80): 96 % of control | T/C (dose: 100.0 mg/kg/injection, schedule: Q04DX002 (ip), vehicle: saline with Tween-80): 89 % of control

COP(=O)(OC)/C(=N\NS(=O)(=O)c1ccc(C)cc1)c1ccccc1
T/C [1]: 94 % of control | T/C [8]: 101 % of control | T/C [9]: 94 % of control

— PubChem BioAssay AID248 (DTP/NCI, 2004)
